From ChEMBL document CHEMBL3044873, “Aryl N, N-Dimethylcarbamates, Synergists for Organophosphorus Insecticides against Organophos-phorusresistant Rice Stem Borers” (J Pestic Sci, 1990)

How the values were obtained:
Chilo suppressalis [1] = test: Potentiation of pirimiphos-methyl-induced insecticidal activity against OP-resistant Chilo suppressalis Hata-f (rice stem borer) assessed as synergistic ratio at 1:10 pirimiphos-methyl to compound ratio relative to pirimiphos-methyl alone; type: functional
Chilo suppressalis [2] = test: Inhibition of fenitrothion-detoxification activities by hydrolysis in OP-resistant Chilo suppressalis Hata-f (rice stem borer); type: organism-based; details: read-out: I50
[3] = test system: fenitrothion-detoxification activity by hydrolysis; test: Inhibition of fenitrothion-detoxification activities by hydrolysis in OP-resistant Chilo suppressalis Hata-f (rice stem borer) at 1x10'-4M (reference value: 0%); type: organism-based; details: probe fenitrothion
[4] = test system: fenitrothion-detoxification activity by hydrolysis; test: Inhibition of fenitrothion-detoxification activities by hydrolysis in OP-resistant Chilo suppressalis Hata-f (rice stem borer) at 1x10'-5M (reference value: 0%); type: organism-based; details: probe fenitrothion
[5] = test system: fenitrothion-detoxification activity by hydrolysis; test: Inhibition of fenitrothion-detoxification activities by hydrolysis in OP-resistant Chilo suppressalis Hata-f (rice stem borer) at 1x10'-6M (reference value: 0%); type: organism-based; details: probe fenitrothion
[6] = test system: fenitrothion-detoxification activity by hydrolysis; test: Inhibition of fenitrothion-detoxification activities by hydrolysis in OP-resistant Chilo suppressalis Hata-f (rice stem borer) at 1x10'-7M (reference value: 0%); type: organism-based; details: probe fenitrothion
Chilo suppressalis [7] = test: Inhibition of fenitrothion-detoxification activities by binding protein in OP-resistant Chilo suppressalis Hata-f (rice stem borer); type: organism-based; details: read-out: I50
[8] = test system: fenitrothion-detoxification activity by binding protein; test: Inhibition of fenitrothion-detoxification activities by binding protein in OP-resistant Chilo suppressalis Hata-f (rice stem borer) at 1x10'-4M (reference value: 0%); type: organism-based; details: in vivo, probe fenitrothion
[9] = test system: fenitrothion-detoxification activity by binding protein; test: Inhibition of fenitrothion-detoxification activities by binding protein in OP-resistant Chilo suppressalis Hata-f (rice stem borer) at 1x10'-5M (reference value: 0%); type: organism-based; details: in vivo, probe fenitrothion
[10] = test system: fenitrothion-detoxification activity by binding protein; test: Inhibition of fenitrothion-detoxification activities by binding protein in OP-resistant Chilo suppressalis Hata-f (rice stem borer) at 1x10'-6M (reference value: 0%); type: organism-based; details: in vivo, probe fenitrothion
[11] = test system: fenitrothion-detoxification activity by binding protein; test: Inhibition of fenitrothion-detoxification activities by binding protein in OP-resistant Chilo suppressalis Hata-f (rice stem borer) at 1x10'-7M (reference value: 0%); type: organism-based; details: in vivo, probe fenitrothion
Chilo suppressalis [12] = test: Potentiation of fenitrothion-induced insecticidal activity against OP-susceptible Chilo suppressalis (rice stem borer) S strain assessed as synergistic ratio at 1:10 fenitrothion to compound ratio relative to fenitrothion alone; type: functional
Chilo suppressalis [13] = test: Potentiation of pirimiphos-methyl-induced insecticidal activity against OP-resistant Chilo suppressalis Hata-f (rice stem borer) assessed as synergistic ratio at 1:5 pirimiphos-methyl to compound ratio relative to pirimiphos-methyl alone; type: functional
Chilo suppressalis [14] = test: Potentiation of pirimiphos-methyl-induced insecticidal activity against OP-resistant Chilo suppressalis Hata-f (rice stem borer) assessed as synergistic ratio at 1:1 pirimiphos-methyl to compound ratio relative to pirimiphos-methyl alone; type: functional
Chilo suppressalis [15] = test: Potentiation of fenitrothion-induced insecticidal activity against OP-resistant Chilo suppressalis Hata-f (rice stem borer) assessed as synergistic ratio at 1:10 fenitrothion to compound ratio relative to fenitrothion alone; type: functional
Chilo suppressalis [16] = test: Resistance ratio, LC50 for OP-resistance Chilo suppressalis Hata-f (rice stem borer) to OP-susceptible Chilo suppressalis S (rice stem borer) strain; type: functional
Chilo suppressalis [17] = test: Insecticidal activity against OP-resistance Chilo suppressalis Hata-f (rice stem borer) assessed as mortality measured after 24 hr; type: functional
Chilo suppressalis [18] = test: Insecticidal activity against OP-susceptible Chilo suppressalis S (rice stem borer) strain assessed as mortality measured after 24 hr; type: functional

Cc1cc(OC(=O)N(C)C)nc(N(C)C)n1 was tested, and the “fold change (FC)” value (Chilo suppressalis [1]) was 1061, the IC50 (Chilo suppressalis [2]) was 4.5 µM and the inhibition at 100 µM [3] was 78%. It also gave an inhibition at 10 µM [4] of 66.7%, an inhibition at 1 µM [5] of 22.2% and an inhibition at 0.1 µM [6] of 0%. It also gave an IC50 (Chilo suppressalis [7]) of 3.3 µM, an inhibition at 100 µM [8] of 78.4% and an inhibition at 10 µM [9] of 75%. For the same compound, the inhibition at 1 µM [10] was 19.3%, the inhibition at 0.1 µM [11] was 0% and the “fold change (FC)” value (Chilo suppressalis [12]) was 1. For the same compound, the “fold change (FC)” value (Chilo suppressalis [13]) was 751, the “fold change (FC)” value (Chilo suppressalis [14]) was 234 and the “fold change (FC)” value (Chilo suppressalis [15]) was 38.
CCN(CC)c1nc(C)cc(OP(=S)(OC)OC)n1 [PIRIMIPHOS METHYL] was tested, and the RatioLC50 (Chilo suppressalis [16]) was 1202, the LD50 (Chilo suppressalis [17]) was 1800 mg/kg and the LD50 (Chilo suppressalis [18]) was 1.5 mg/kg.
For CN(C)C(=O)Oc1cc(-c2ccccc2)on1, the “fold change (FC)” value (Chilo suppressalis [1]) was 419, the “fold change (FC)” value (Chilo suppressalis [12]) was 0.9 and the “fold change (FC)” value (Chilo suppressalis [13]) was 328. The “fold change (FC)” value (Chilo suppressalis [14]) was 67 and the “fold change (FC)” value (Chilo suppressalis [15]) was 23.
Compound COP(=S)(OC)Oc1ccc([N+](=O)[O-])c(C)c1 [FENITROTHION] has a RatioLC50 (Chilo suppressalis [16]) of 38, an LD50 (Chilo suppressalis [17]) of 69 mg/kg and an LD50 (Chilo suppressalis [18]) of 1.8 mg/kg.
COP(=O)(OC)Oc1ccc([N+](=O)[O-])c(C)c1 [FENITROXON] was tested, and the RatioLC50 (Chilo suppressalis [16]) was 23, the LD50 (Chilo suppressalis [17]) was 27 mg/kg and the LD50 (Chilo suppressalis [18]) was 1.2 mg/kg.
